Assay results from PubChem BioAssay AID1918948 (Molecular Pharmacology Branch, DTP, NCI, 2023).
pIC50: −log10 of the molar value.

System: K-562 leukemia growth, % test/control
Assay: Anticancer human tumor K-562 cell line growth inhibition;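 for viability, T/C: 100% = DMSO vehicle wells and lower values mean fewer viable cells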
Details: spheroids with HUVEC and MSC; for pIC50: curve of first compound; for viability, T/C: stronger effect = lower value
Procedure, shortened: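 Complex spheroids of tumor cells with HUVEC and human MSCs, exposed to iadademstat combined with other agents. Each agent tested in half-log steps from near clinical Cmax (else 10 microM top), DMSO ≤0.25%.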

[1] = second compound 0.1 µM, first compound 0.00316 µM
[2] = second compound 0.1 µM, first compound 0.01 µM
[3] = second compound 0.1 µM, first compound 0.0316 µM
[4] = second compound 0.1 µM, first compound 0.1 µM
[5] = second compound 0.316 µM, first compound 0.00316 µM
[6] = second compound 0.316 µM, first compound 0.01 µM
[7] = second compound 0.316 µM, first compound 0.0316 µM
[8] = second compound 0.316 µM, first compound 0.1 µM
[9] = second compound 1 µM, first compound 0.00316 µM
[10] = second compound 1 µM, first compound 0.01 µM
[11] = second compound 1 µM, first compound 0.0316 µM
[12] = second compound 1 µM, first compound 0.1 µM
[13] = second compound 3.16 µM, first compound 0.00316 µM
[14] = second compound 3.16 µM, first compound 0.01 µM
[15] = second compound 3.16 µM, first compound 0.0316 µM
[16] = second compound 3.16 µM, first compound 0.1 µM
[17] = second compound 10 µM, first compound 0.00316 µM
[18] = second compound 10 µM, first compound 0.01 µM
[19] = second compound 10 µM, first compound 0.0316 µM
[20] = second compound 10 µM, first compound 0.1 µM

**Q.** Which results are given for `COc1cc(Nc2ncc3c(n2)-c2ccc(Cl)cc2C(c2c(F)cccc2OC)=NC3)ccc1C(=O)O` + NC1CC1c1ccc(-c2cccc(O)c2)cc1?
**A.** pIC50 (second compound 0.1 µM): > 8.50; pIC50 (second compound 0.316 µM): > 8.50; pIC50 (second compound 1 µM): > 8.50; pIC50 (second compound 3.16 µM): > 8.50; pIC50 (second compound 10 µM): > 8.50; viability, T/C [1]: 31.1%; viability, T/C [2]: 35.4%; viability, T/C [3]: 35.4%; viability, T/C [4]: 27.7%; viability, T/C (second compound 0.1 µM, first compound 0.316 µM): 11.1%; viability, T/C (second compound 0.1 µM, first compound 1 µM): 5.75%; viability, T/C [5]: 22.8%; viability, T/C [6]: 27.5%; viability, T/C [7]: 27.8%; viability, T/C [8]: 18.3%; viability, T/C (second compound 0.316 µM, first compound 0.316 µM): 8.22%; viability, T/C (second compound 0.316 µM, first compound 1 µM): 4.56%; viability, T/C [9]: 20.2%; viability, T/C [10]: 24.4%; viability, T/C [11]: 22.4%; viability, T/C [12]: 13.9%; viability, T/C (second compound 1 µM, first compound 0.316 µM): 6.56%; viability, T/C (second compound 1 µM, first compound 1 µM): 4.05%; viability, T/C [13]: 15.5%; viability, T/C [14]: 21%; viability, T/C [15]: 21.4%; viability, T/C [16]: 14%; viability, T/C (second compound 3.16 µM, first compound 0.316 µM): 6.72%; viability, T/C (second compound 3.16 µM, first compound 1 µM): 4.65%; viability, T/C [17]: 10%; viability, T/C [18]: 16.6%; viability, T/C [19]: 20.3%; viability, T/C [20]: 11.9%; viability, T/C (second compound 10 µM, first compound 0.316 µM): 6.15%; viability, T/C (second compound 10 µM, first compound 1 µM): 3.42%

**Q.** What does the source list for `Cn1ncnc1C1c2n[nH]c(=O)c3cc(F)cc(c23)NC1c1ccc(F)cc1` (stereo not given) + NC1CC1c1ccc(-c2cccc(O)c2)cc1?
**A.** pIC50 (second compound 0.1 µM): < 7.00; pIC50 (second compound 0.316 µM): < 7.00; pIC50 (second compound 1 µM): < 7.00; pIC50 (second compound 3.16 µM): < 7.00; pIC50 (second compound 10 µM): < 7.00; viability, T/C (second compound 0.1 µM, first compound 0.000316 µM): 112%; viability, T/C (second compound 0.1 µM, first compound 0.001 µM): 110%; viability, T/C [1]: 108%; viability, T/C [2]: 108%; viability, T/C [3]: 105%; viability, T/C [4]: 101%; viability, T/C (second compound 0.316 µM, first compound 0.000316 µM): 108%; viability, T/C (second compound 0.316 µM, first compound 0.001 µM): 105%; viability, T/C [5]: 105%; viability, T/C [6]: 105%; viability, T/C [7]: 101%; viability, T/C [8]: 97.2%; viability, T/C (second compound 1 µM, first compound 0.000316 µM): 106%; viability, T/C (second compound 1 µM, first compound 0.001 µM): 102%; viability, T/C [9]: 97.8%; viability, T/C [10]: 96.7%; viability, T/C [11]: 97.2%; viability, T/C [12]: 95.2%; viability, T/C (second compound 3.16 µM, first compound 0.000316 µM): 106%; viability, T/C (second compound 3.16 µM, first compound 0.001 µM): 100%; viability, T/C [13]: 95.6%; viability, T/C [14]: 98.8%; viability, T/C [15]: 98.5%; viability, T/C [16]: 93.2%; viability, T/C (second compound 10 µM, first compound 0.000316 µM): 101%; viability, T/C (second compound 10 µM, first compound 0.001 µM): 101%; viability, T/C [17]: 99.7%; viability, T/C [18]: 98.4%; viability, T/C [19]: 95.4%; viability, T/C [20]: 89.1%

**Q.** How did the pIC50 (second compound 0.1 µM) turn out when `NS(=O)(=O)OCC1CC(n2ccc3c(NC4CCc5ccccc54)ncnc32)CC1O` (stereo not given) + NC1CC1c1ccc(-c2cccc(O)c2)cc1 was run?
**A.** > 8.02

**Q.** And the pIC50 (second compound 0.316 µM)?
**A.** > 8.02

**Q.** And the pIC50 (second compound 1 µM)?
**A.** > 8.02

**Q.** And the pIC50 (second compound 3.16 µM)?
**A.** > 8.02

**Q.** And the pIC50 (second compound 10 µM)?
**A.** > 8.02

**Q.** And the viability, T/C (second compound 0.1 µM, first compound 0.00949 µM)?
**A.** 50.7%

**Q.** What about the viability, T/C (second compound 0.1 µM, first compound 0.03 µM) of the same compound?
**A.** 32.8%

**Q.** What about the viability, T/C (second compound 0.1 µM, first compound 0.0949 µM) of the same compound?
**A.** 37.7%

**Q.** And the viability, T/C (second compound 0.1 µM, first compound 0.3 µM)?
**A.** 19.2%

**Q.** And the viability, T/C (second compound 0.1 µM, first compound 0.949 µM)?
**A.** 11.2%

**Q.** And the viability, T/C (second compound 0.1 µM, first compound 3 µM)?
**A.** 4.04%

**Q.** What about the viability, T/C (second compound 0.316 µM, first compound 0.00949 µM) of the same compound?
**A.** 47%

**Q.** What about the viability, T/C (second compound 0.316 µM, first compound 0.03 µM) of the same compound?
**A.** 29.9%

**Q.** What about the viability, T/C (second compound 0.316 µM, first compound 0.0949 µM) of the same compound?
**A.** 32%

**Q.** And the viability, T/C (second compound 0.316 µM, first compound 0.3 µM)?
**A.** 16.3%

**Q.** And the viability, T/C (second compound 0.316 µM, first compound 0.949 µM)?
**A.** 10.3%

**Q.** And the viability, T/C (second compound 0.316 µM, first compound 3 µM)?
**A.** 3.18%

**Q.** What about the viability, T/C (second compound 1 µM, first compound 0.00949 µM) of the same compound?
**A.** 46.8%

**Q.** What about the viability, T/C (second compound 1 µM, first compound 0.03 µM) of the same compound?
**A.** 27.1%

**Q.** What about the viability, T/C (second compound 1 µM, first compound 0.0949 µM) of the same compound?
**A.** 32.8%

**Q.** What about the viability, T/C (second compound 1 µM, first compound 0.3 µM) of the same compound?
**A.** 14.8%

**Q.** What about the viability, T/C (second compound 1 µM, first compound 0.949 µM) of the same compound?
**A.** 10.3%

**Q.** What about the viability, T/C (second compound 1 µM, first compound 3 µM) of the same compound?
**A.** 3.44%

**Q.** And the viability, T/C (second compound 3.16 µM, first compound 0.00949 µM)?
**A.** 45.6%

**Q.** What about the viability, T/C (second compound 3.16 µM, first compound 0.03 µM) of the same compound?
**A.** 25.7%

**Q.** What about the viability, T/C (second compound 3.16 µM, first compound 0.0949 µM) of the same compound?
**A.** 30.2%

**Q.** What about the viability, T/C (second compound 3.16 µM, first compound 0.3 µM) of the same compound?
**A.** 13.2%

**Q.** What about the viability, T/C (second compound 3.16 µM, first compound 0.949 µM) of the same compound?
**A.** 8.49%

**Q.** What about the viability, T/C (second compound 3.16 µM, first compound 3 µM) of the same compound?
**A.** 1.8%

**Q.** What about the viability, T/C (second compound 10 µM, first compound 0.00949 µM) of the same compound?
**A.** 30.5%

**Q.** What about the viability, T/C (second compound 10 µM, first compound 0.03 µM) of the same compound?
**A.** 19.8%

**Q.** What about the viability, T/C (second compound 10 µM, first compound 0.0949 µM) of the same compound?
**A.** 21.2%

**Q.** What about the viability, T/C (second compound 10 µM, first compound 0.3 µM) of the same compound?
**A.** 9.28%

**Q.** And the viability, T/C (second compound 10 µM, first compound 0.949 µM)?
**A.** 2.95%

**Q.** And the viability, T/C (second compound 10 µM, first compound 3 µM)?
**A.** 0.72%
